Laboratory results as given in publication PMC13070491, “Single-nucleus transcriptomics, pharmacokinetics, and pharmacodynamics of CDK4/6 and mTOR inhibition in a Phase 0/1 trial of recurrent high-grade glioma” (Neuro-Oncology, 2025).

Tested on: GB126, GB239 and GB86 patient-derived cell lines
Test: In vitro single-cell RNA sequencing, analyses across the cell lines (pseudobulk differential gene expression, GSEA, non-cycling cells)
Format: cell-based, human
Settings: pseudobulk, ribociclib versus control (DMSO)
Protocol: Patient-derived glioma stem cell lines (GSCs; GB126, GB86, and GB239) were established from resected GBM tumor tissue. Cell lines were genetically profiled for mutations and copy number aberrations using the IvySeq custom gene panel. […] GB239 was derived from a tumor sample included in this Phase 0 trial (tumor sample: 100-0039). All human GSCs were cultured as described previously.[12]
Following the fifth day of drug exposure, cells were harvested, cryopreserved to be processed at a later point, or immediately processed for single-cell RNA sequencing (10x Genomics, 3’ version 3). The single-cell RNA sequencing data were then processed via cellranger count and Seurat. Briefly, cells were filtered out based on the following criteria: minimum number of genes detected >500 and <10 000 with a maximum percentage of mitochondrial genes set to 10%. Statistical assessment was made between the malignant proportions of each cell state using a 2-sided paired t-test.
Descriptive statistics of the clinical data are included in Table 1. Comparisons between groups were conducted using a 2-sided or paired 2-sided t-test, where indicated. P < .05 was considered significant. Multiple hypothesis test corrections (ie, false discovery rate correction) were applied for snRNAseq pseudobulk differential expression analysis.

For `CN(C)C(=O)c1cc2cnc(Nc3ccc(N4CCNCC4)cn3)nc2n1C1CCCC1` [ribo], the “log2FoldChange CYSLTR2” value (gene CYSLTR2) was 1.514, the “log2FoldChange CYYR1-AS1” value (gene CYYR1-AS1) was 1.511 and the “log2FoldChange DDO” value (gene DDO) was 1.495. The log2FoldChange (gene DEPDC1B) was -1.796, the log2FoldChange (gene DERL3) was -1.095 and the log2FoldChange (gene DHFR) was -1.766. For the same compound, the log2FoldChange (gene DIAPH3-AS2) was -1.671, the log2FoldChange (gene DNA2) was -1.693 and the “log2FoldChange DSCR8” value (gene DSCR8) was 1.633. The log2FoldChange (gene DTL) was -1.106, the log2FoldChange (gene ECT2) was -1.057 and the “log2FoldChange FAM71F1” value (gene FAM71F1) was 1.476. For the same compound, the log2FoldChange (gene FAM72D) was -1.625, the “log2FoldChange FAM189A2” value (gene FAM189A2) was 1.685 and the log2FoldChange (gene FANCG) was -1.109. The log2FoldChange (gene FBLN1) was -1.678, the log2FoldChange (gene FEN1) was -1.753 and the log2FoldChange (gene FGFR3) was -1.106. The “log2FoldChange FSHR” value (gene FSHR) was 1.906, the “log2FoldChange GBP6” value (gene GBP6) was 1.725 and the “log2FoldChange GDF3” value (gene GDF3) was 1.697. The log2FoldChange (gene GINS2) was -1.846, the log2FoldChange (gene GLI1) was -1.086 and the log2FoldChange (gene GMNN) was -1.627. For the same compound, the “log2FoldChange HABP2” value (gene HABP2) was 1.889, the log2FoldChange (gene HAUS8) was -1.09 and the “log2FoldChange HEPH” value (gene HEPH) was 1.499. For the same compound, the “log2FoldChange HGFAC” value (gene HGFAC) was 1.4467, the log2FoldChange (gene HIRIP3) was -1.608 and the log2FoldChange (gene HIST1H1C) was -1.863. For the same compound, the log2FoldChange (gene HIST1H3H) was -1.783, the “log2FoldChange HKDC1” value (gene HKDC1) was 1.5426 and the log2FoldChange (gene IL1A) was -1.056. For the same compound, the log2FoldChange (gene IL2RB) was -1.0626, the log2FoldChange (gene INCENP) was -1.833 and the “log2FoldChange ITIH6” value (gene ITIH6) was 1.766. The log2FoldChange (gene KCNAB3) was -1.628, the “log2FoldChange KISS1” value (gene KISS1) was 2.005 and the log2FoldChange (gene KNTC1) was -1.6836. For the same compound, the “log2FoldChange LINC00239” value (gene LINC00239) was 1.81, the “log2FoldChange LINC00587” value (gene LINC00587) was 1.439 and the “log2FoldChange LINC00601” value (gene LINC00601) was 1.889. The “log2FoldChange LINC00645” value (gene LINC00645) was 1.665, the “log2FoldChange LINC00844” value (gene LINC00844) was 1.919 and the “log2FoldChange LINC00892” value (gene LINC00892) was 1.448. For the same compound, the “log2FoldChange LINC00901” value (gene LINC00901) was 2.0689, the “log2FoldChange LINC00903” value (gene LINC00903) was 1.858 and the “log2FoldChange LINC00943” value (gene LINC00943) was 1.485. For the same compound, the “log2FoldChange LINC00992” value (gene LINC00992) was 1.834, the log2FoldChange (gene LINC01337) was -1.849 and the “log2FoldChange LINC01496” value (gene LINC01496) was 1.714. For the same compound, the “log2FoldChange LINC01630” value (gene LINC01630) was 1.508, the “log2FoldChange LINC01822” value (gene LINC01822) was 1.567 and the “log2FoldChange LINC02073” value (gene LINC02073) was 1.471. For the same compound, the log2FoldChange (gene LINC02137) was -1.093, the “log2FoldChange LINC02243” value (gene LINC02243) was 1.564 and the “log2FoldChange LINC02320” value (gene LINC02320) was 1.543. The “log2FoldChange LINC02349” value (gene LINC02349) was 1.483, the “log2FoldChange LINC02450” value (gene LINC02450) was 1.635 and the “log2FoldChange LINC02552” value (gene LINC02552) was 1.805. The “log2FoldChange LINC02625” value (gene LINC02625) was 1.633, the log2FoldChange (gene LINC02757) was -1.715 and the “log2FoldChange LINC02831” value (gene LINC02831) was 1.506. For the same compound, the “log2FoldChange LNX1-AS1” value (gene LNX1-AS1) was 1.468, the log2FoldChange (gene LPL) was -1.817 and the log2FoldChange (gene LRRC26) was -1.7868. For the same compound, the “log2FoldChange MARVELD3” value (gene MARVELD3) was 1.752, the “log2FoldChange MCHR1” value (gene MCHR1) was 1.5856 and the log2FoldChange (gene MCM8) was -1.112. For the same compound, the “log2FoldChange MGP” value (gene MGP) was 1.798, the log2FoldChange (gene MMS22L) was -1.0936 and the log2FoldChange (gene MND1) was -1.879. For the same compound, the “log2FoldChange MYH7” value (gene MYH7) was 1.782, the “log2FoldChange NAT2” value (gene NAT2) was 2.867 and the “log2FoldChange NCAN” value (gene NCAN) was 1.62. The log2FoldChange (gene NCAPD2) was -1.822, the log2FoldChange (gene NEMP2) was -1.111 and the log2FoldChange (gene NEUROD4) was -1.88. The “log2FoldChange NHLRC4” value (gene NHLRC4) was 1.795, the “log2FoldChange NMRK2” value (gene NMRK2) was 1.566 and the log2FoldChange (gene NOSTRIN) was -1.881. It also gave a log2FoldChange (gene NT5M) of -1.088, a log2FoldChange (gene NUP210) of -1.755 and a log2FoldChange (gene PALM3) of -1.6379. For the same compound, the log2FoldChange (gene PASK) was -1.1089, the “log2FoldChange PCP4L1” value (gene PCP4L1) was 2.139 and the log2FoldChange (gene PHF19) was -1.68. The “log2FoldChange PLA2G5” value (gene PLA2G5) was 2.135, the “log2FoldChange PLAAT4” value (gene PLAAT4) was 1.529 and the log2FoldChange (gene PMAIP1) was -1.131. The log2FoldChange (gene POLQ) was -1.824, the “log2FoldChange PPP1R1C” value (gene PPP1R1C) was 1.557 and the “log2FoldChange PROK2” value (gene PROK2) was 1.695. The log2FoldChange (gene PRR11) was -1.758, the log2FoldChange (gene PSMC3IP) was -1.597 and the “log2FoldChange PTGDS” value (gene PTGDS) was 2.458. For the same compound, the “log2FoldChange RAB7B” value (gene RAB7B) was 1.47, the log2FoldChange (gene RACGAP1) was -1.841 and the log2FoldChange (gene RAD51) was -1.643. It also gave a log2FoldChange (gene RADIL) of -1.781, a log2FoldChange (gene RBBP8) of -1.095 and a log2FoldChange (gene RDM1) of -1.73. For the same compound, the log2FoldChange (gene REXO5) was -1.094, the log2FoldChange (gene RHBDL3) was -1.639 and the “log2FoldChange RNASE6” value (gene RNASE6) was 1.784. For the same compound, the log2FoldChange (gene RPA3) was -1.063, the “log2FoldChange RSPH1” value (gene RSPH1) was 1.529 and the log2FoldChange (gene RTKN2) was -1.715.
